Assay results: PMC10348910, “Epigenetic reprogramming of cell cycle genes by ACK1 promotes breast cancer resistance to CDK4/6 inhibitor” (Oncogene, 2023)

How the values were obtained:
[1] = tested on: cytochrome P450 (CYP) isoenzymes; format: in vitro ADME; conditions: human liver microsomes; CYP1A1/2, CYP2C9, CYP2C19, CYP2D6 and CYP3A4
[2] = tested on: Palbociclib-resistant HCC-1395; assay: proliferation assay, trypan blue exclusion; format: cell-based; conditions: palbociclib-resistant HCC-1395, 96 h
Procedure: (§1) A–F Breast cancer cells were treated with either vehicle or (R)-9b for 48 h; cells were harvested and processed for cell cycle analysis using propidium iodide staining, followed by flow cytometry. G BT549 and H MDA-MB-468 cells were treated with varying drug concentrations of palbociclib or (R)-9b for 96 h and the cell viability assessed using trypan blue exclusion method. I BT549, and J MDA-MB-468 cells were treated with 1 µM palbociclib or (R)-9b for 48 h and subjected to cell cycle analysis using propidium iodide staining, followed by flow-cytometry. Palbociclib-resistant MDA-MB-231 (K) and HCC-1395 (L) were generated and treated with varying drug concentrations of palbociclib or (R)-9b for 96 h and the cell viability assessed using trypan blue exclusion method.
(§2) The mid-G1 phase is governed by CDK4 and CDK6, two serine/threonine kinases the catalytic activity of which is modulated by D-type cyclins (D1, D2, and D3). […]
(§3) For proliferation assay, 5 × 10^4 cells were plated in 6-well plate and treated with either vehicle (DMSO) or varying concentrations of (R)-9b or palbociclib in complete media for 96 h and number of viable cells were counted by trypan blue exclusion assay. […] The cells were acquired using the BD FACSCalibur machine (BD Biosciences) and data was analyzed using FlowJo software. […] The data were analyzed using FlowJo software.

[3] = tested on: Palbociclib-resistant MDA-MB-231; assay: proliferation assay, trypan blue exclusion; format: cell-based; conditions: palbociclib-resistant MDA-MB-231, 96 h
Procedure: as §1, §2, §3

[4] = tested on: MDA-MB-231 lung metastasis; assay: tail vein assay of cancer metastasis; format: in vivo, female SCID mice; conditions: 24 mg/Kg, 5 days a week
Procedure: To validate the functional significance in vivo, we performed the tail vein assay of cancer metastasis. Briefly, MDA-MB-231 cells were injected in tail veins of female SCID mice and were treated with vehicle or 24 mg/Kg (R)-9b either subcutaneously or orally, for 5 days a week. The mice were euthanized and the lungs were harvested, preserved in 10% neutral buffered formalin, followed by H&E staining. Sections were examined by pathologist (C.W), and scored for metastatic nodules/deposits in 12 × 10 mm area of lung tissue.
MDA-MB-231 cells (2 × 10^5 in PBS), were injected intravenously in the lateral tail vein of female SCID mice. After 10 days, the mice were randomly chosen for treatment with either vehicle, (R)-9b (36 mg/Kg body weight) orally or subcutaneously (s.c.) (24 mg/Kg body weight) for 5 days a week, for 2 weeks. The mice were sacrificed and the lungs were harvested and fixed in 10% neutral buffered formalin. The number of metastatic foci per lung were scored in a blinded fashion by a pathologist (C.W.).

CXCR4 mRNA = assay: qRT-PCR of CXCR4 in MDA-MB-231 cells; format: cell-based
Procedure: Fig. 7 ACK1 inhibitor overcomes palbociclib-resistant breast cancer growth and metastasis. A 3 × 10^6 MDA-MB-468 cells were injected in the 4th inguinal mammary fat pad of female SCID mice. Once the tumors were palpable, the mice were treated with either vehicle (Captisol; n = 7), Palbociclib at 80 mg/kg (n = 6), or (R)-9b at 36 mg/Kg (n = 6) orally. In addition, mice were injected with (R)-9b at 24 mg/Kg (n = 7) subcutaneously. Mice were treated five times a week, for 22 days. B, C The tumors were harvested and photographed, and the weights were recorded. D Vehicle or (R)-9b treated breast cancer cells were subjected to ChIP using pY88-H4 antibody, followed by qPCR for CXCR4 gene. E CXCR4 mRNA transcript levels in vehicle or (R)-9b treated MDA-MB-231 cells. 18S rRNA was used as housekeeping gene. F MDA-MB-231 cells were transfected with ACK1 or scrambled siRNA, followed by qRT-PCR to determine CXCR4 mRNA transcript levels. […] H Graphical quantitation of lung metastatic deposit. […] The metastases were assessed using IVIS. […] For (A, C–F, I), p values were calculated using unpaired two-tailed Student’s t test.
Real-time quantitative PCR analyses were performed using the ABI PRISM 7900HT Sequence Detection System (Applied Biosystems) as described earlier. […] Data were analyzed using SDS software version 2.2.2 and exported into an Excel spreadsheet. […]

With `CN1CCN(c2ccc(Nc3ncc(Cl)c(NC[C@H]4CCCO4)n3)cc2)CC1` [(R)-9b] the “potential to inhibit cytochrome P450 (CYP) isoenzymes” value [1] was “low potential to inhibit”, the “sensitivity (cell proliferation)” value [2] was “loss of proliferation” and the “sensitivity (cell proliferation)” value [3] was “loss of proliferation”. The lung metastatic deposits ([4]; (R)-9b oral) was 2 deposits, the lung metastatic deposits ([4]; (R)-9b subcutaneous) was “no deposits” and the CXCR4 transcription (CXCR4 mRNA) was “inhibited CXCR4 transcription”.
